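The compound was tested at five concentrations on cells cultured in 96-well plates, with a 48-hour exposure period. Abbreviation: GI50, concentration required for 50% inhibition of growth. TGI: total growth inhibition.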 Bounds are passed on as bounds.

Our source for the TGI and GI50 values is PubChem BioAssay (NCI).

Test systems include RPMI-8226 leukemia; U251 CNS; HT29 colon; SW-620 colon; OVCAR-4 ovarian; UACC-257 melanoma; SK-MEL-28 melanoma; EKVX NSCLC; 786-0 renal; RXF 393 renal.
Holding throughout (test): growth of human tumour cells (NCI), 48 h

Regarding `N=C(N)SCCc1cn2ccccc2n1`, the TGI in the assay on RPMI-8226 leukemia, in the assay on U251 CNS, in the assay on HT29 colon, in the assay with SW-620 colon, in the assay on OVCAR-4 ovarian and with UACC-257 melanoma was > 100 µM throughout. For the same compound, the TGI in the assay with SK-MEL-28 melanoma, in the assay with EKVX NSCLC and with 786-0 renal was > 100 µM throughout.
Take `CC(C)C(=O)N[C@@H](C)C(=O)N(Cc1ccc2ccccc2c1)N=O`: the TGI in the assay with RPMI-8226 leukemia, in the assay with U251 CNS, with HT29 colon, in the assay on SW-620 colon, in the assay on OVCAR-4 ovarian and in the assay on UACC-257 melanoma was > 100 µM each time. For the same compound, the TGI with SK-MEL-28 melanoma, in the assay with EKVX NSCLC and with 786-0 renal was > 100 µM throughout.
As to `CC1(O)CC2C(CC1SCCO)C2(C)C` (stereo unspecified), the TGI with RPMI-8226 leukemia, in the assay with U251 CNS, in the assay on HT29 colon, in the assay with OVCAR-4 ovarian, in the assay with UACC-257 melanoma and in the assay on SK-MEL-28 melanoma was > 100 µM throughout. Besides, the TGI in the assay on EKVX NSCLC and with 786-0 renal was > 100 µM in each case.
Take `O=C(COc1cccc(/C=C2\COc3ccccc3C2=O)c1)Nc1nccs1`: the GI50 with RPMI-8226 leukemia is 1290 nM; in the assay on U251 CNS, 1730 nM; in the assay on HT29 colon, 1940 nM; in the assay on SW-620 colon, 1.97 µM; in the assay on OVCAR-4 ovarian, 3.99 µM; in the assay with UACC-257 melanoma, 2060 nM. Also, the GI50 was 2420 nM in the assay on SK-MEL-28 melanoma, 4.11 µM in the assay on EKVX NSCLC and 2050 nM with 786-0 renal. Moreover, the TGI in the assay with RPMI-8226 leukemia worked out at 3.69 µM; in the assay on U251 CNS it was 3.11 µM; with HT29 colon, 3.72 µM; in the assay with SW-620 colon, 3.98 µM; in the assay on OVCAR-4 ovarian it was 14.3 µM; with UACC-257 melanoma, 5.28 µM. Besides, the results for the TGI in the assay on SK-MEL-28 melanoma, in the assay on EKVX NSCLC and with 786-0 renal were 5.44 µM, 17.1 µM and 4.14 µM, respectively.
For `CC1=CC(C)(C)N=C2SC(c3ccc(Cl)cc3)=NN12`, the TGI is 49.8 µM in the assay with RPMI-8226 leukemia; 90.9 µM in the assay with U251 CNS; 38.7 µM in the assay on HT29 colon; > 100 µM with SW-620 colon; > 100 µM with OVCAR-4 ovarian; > 100 µM in the assay on UACC-257 melanoma. In addition, the TGI with SK-MEL-28 melanoma is > 100 µM; in the assay on EKVX NSCLC, > 100 µM; in the assay with 786-0 renal, 32.8 µM.
As for `O=C(O)/C(=C/c1ccccc1[N+](=O)[O-])c1ccccc1`, the TGI in the assay with RPMI-8226 leukemia, with U251 CNS, in the assay on HT29 colon, in the assay with SW-620 colon, with OVCAR-4 ovarian and in the assay with UACC-257 melanoma was > 100 µM each time. Moreover, the TGI in the assay with SK-MEL-28 melanoma, with EKVX NSCLC and in the assay with 786-0 renal was > 100 µM throughout.
On to `CCC[CH2][Sn]([CH2]CCC)([O]C(=O)c1cccc(F)c1)[O]C(=O)c1cccc(F)c1`, for which the GI50 with RPMI-8226 leukemia is 329 nM; in the assay with U251 CNS it was 1050 nM; in the assay on HT29 colon it was 1730 nM; with OVCAR-4 ovarian, 2.05 µM; with UACC-257 melanoma, 1170 nM; with SK-MEL-28 melanoma, 703 nM. Besides, the GI50 is 1.3 µM in the assay with EKVX NSCLC, 1190 nM in the assay on 786-0 renal and 0.185 µM with RXF 393 renal. Moreover, the TGI was 2.02 µM with RPMI-8226 leukemia; 2.26 µM with U251 CNS; 3.38 µM in the assay on HT29 colon; 3.83 µM in the assay with OVCAR-4 ovarian; 2.6 µM in the assay on UACC-257 melanoma; 2.02 µM with SK-MEL-28 melanoma. Moreover, the values for the TGI with EKVX NSCLC, with 786-0 renal and with RXF 393 renal were 2.96 µM, 2.49 µM and 0.758 µM, respectively.
As to `N#Cc1ccccc1C#C/C=C\C#Cc1ccc(OCCCNC(=O)c2cc3ccccc3[nH]2)cc1`, the GI50 with U251 CNS is 10700 nM; in the assay with HT29 colon, 30900 nM; in the assay on SW-620 colon, 30.2 µM; with OVCAR-4 ovarian it was 59 µM; with UACC-257 melanoma, 23000 nM; in the assay with SK-MEL-28 melanoma, 32000 nM. The results for the GI50 with EKVX NSCLC, in the assay on 786-0 renal and in the assay on RXF 393 renal were 17.1 µM, 16100 nM and 21.4 µM, respectively. Further, the TGI in the assay with U251 CNS is 22.5 µM; in the assay with HT29 colon it was > 100 µM; in the assay on SW-620 colon it was > 100 µM; in the assay with OVCAR-4 ovarian, > 100 µM; with UACC-257 melanoma it was > 100 µM; in the assay on SK-MEL-28 melanoma it was > 100 µM. Moreover, the TGI in the assay with EKVX NSCLC was 96.6 µM; with 786-0 renal, 40.5 µM; with RXF 393 renal, 52.2 µM.
Turning to `CC(=O)OC12c3ccccc3C1CCCCCC21OCCCO1` (stereo unspecified), the TGI in the assay with RPMI-8226 leukemia, in the assay with U251 CNS, with HT29 colon, in the assay with OVCAR-4 ovarian, with SK-MEL-28 melanoma and in the assay on 786-0 renal was > 100 µM throughout. Moreover, the TGI in the assay with RXF 393 renal was > 100 µM.
`O=c1cc(Cl)nc[nH]1`: the TGI with RPMI-8226 leukemia, in the assay with U251 CNS, in the assay on HT29 colon, in the assay on SW-620 colon, in the assay on OVCAR-4 ovarian and in the assay with UACC-257 melanoma was > 100 µM each time. Moreover, the TGI with SK-MEL-28 melanoma, with EKVX NSCLC and in the assay on 786-0 renal was > 100 µM throughout.
With `N=C(c1ccccc1)N(O)C1CCCCC1`, the TGI with U251 CNS, with HT29 colon, in the assay with SW-620 colon, in the assay on OVCAR-4 ovarian, in the assay on UACC-257 melanoma and in the assay with SK-MEL-28 melanoma was > 100 µM in each case. The TGI in the assay with EKVX NSCLC, with 786-0 renal and in the assay with RXF 393 renal was > 100 µM each time.
For the compound `COc1ccc2c3c1C(=O)CCC3CO2` (stereo unspecified), the TGI in the assay with RPMI-8226 leukemia, with U251 CNS, with HT29 colon, with SW-620 colon, with OVCAR-4 ovarian and in the assay with UACC-257 melanoma was > 100 µM throughout. Moreover, the TGI in the assay with SK-MEL-28 melanoma, in the assay on EKVX NSCLC and in the assay on 786-0 renal was > 100 µM throughout.
As to `CCCCCCCCCCCCCCCC(=O)OCC(O)C1OC(=O)C(O)=C1O` (stereo unspecified), the TGI was 61.7 µM in the assay on U251 CNS; 38.8 µM in the assay with HT29 colon; > 100 µM with SW-620 colon; > 100 µM with OVCAR-4 ovarian; > 100 µM in the assay on UACC-257 melanoma; 41.4 µM with SK-MEL-28 melanoma. Moreover, the TGI in the assay on EKVX NSCLC is > 100 µM; in the assay on 786-0 renal, 38.8 µM; with RXF 393 renal it was 86.8 µM.
